Among the data in patent US6949542B2, “Dihydro-benzo[b][1,4]diazepin-2-one derivatives” (Hoffman-La Roche Inc., priority 2002, dated 2005) are melting point values, retold here.

For orientation: melting point means the temperature, or range, at which the solid turns liquid.

Compound `Cc1ncccc1-c1cccc(C2=Nc3ccc(-n4cccc4)cc3NC(=O)C2)c1` [Example 289, 4-[3-(2-Methyl-pyridin-3-yl)-phenyl]-8-pyrrol-1-yl-1,3-dihydro-benzo[b][1,4]diazepin-2-one] returned a melting point of 215 to 216 °C.
The compound `Cc1cc2c(cc1Cl)NC(=O)CC(c1ccnc(-c3cccnc3)c1)=N2` [Example 291, 4-[2,3′]Bipyridinyl-4-yl-8-chloro-7-methyl-1,3-dihydro-benzo[b][1,4]diazepin-2-one] returned a melting point of 229 to 231 °C.
The compound `Cc1cc2c(cc1C(F)(F)F)NC(=O)CC(c1ccnc(-c3ccncc3)c1)=N2` [Example 292, 4-[2,4′]Bipyridinyl-4-yl-7-methyl-8-trifluoromethyl-1,3-dihydro-benzo[b][1,4]diazepin-2-one] displayed a melting point of 224 to 226 °C.
`Cc1cc2c(cc1Cl)NC(=O)CC(c1ccnc(-c3ccncc3)c1)=N2` [Example 293, 4-[2,4′]Bipyridinyl-4-yl-8-chloro-7-methyl-1,3-dihydro-benzo[b][1,4]diazepin-2-one] registered a melting point of 233 to 235 °C.
Turning to `Cc1cc(-c2cc(C3=Nc4cc(C)c(Cl)cc4NC(=O)C3)ccn2)ccn1` [Example 295, 8-Chloro-7-methyl-4-(2′-methyl-[2,4′]bipyridinyl-4-yl)-1,3-dihydro-benzo[b][1,4]diazepin-2-one], the melting point was in the range of 225 to 227 °C.
Turning to `Cc1cc2c(cc1Cl)NC(=O)CC(c1cccc(-c3ccncn3)c1)=N2` [Example 297, 8-Chloro-7-methyl-4-(3-pyrimidin-4-yl-phenyl)-1,3-dihydro-benzo[b][1,4]diazepin-2-one], the melting point is 242 to 247 °C.
On to `CN(C)c1cc2c(cc1C(F)(F)F)NC(=O)CC(c1cccc(-c3ccncn3)c1)=N2` [Example 298, 7-Dimethylamino-4-(3-pyrimidin-4-yl-phenyl)-8-trifluoromethyl-1,3-dihydro-benzo[b][1,4]diazepin-2-one], for which the melting point lay within 209 to 210 °C.
The result for `O=C1CC(c2cccc(-c3ccncn3)c2)=Nc2ccc(Cl)cc2N1` [Example 299, 8-Chloro-4-(3-pyrimidin-4-yl-phenyl)-1,3-dihydro-benzo[b][1,4]diazepin-2-one] reads 220 to 233 °C.
As to `O=C1CC(c2cccc(-c3ccncn3)c2)=Nc2cc(Cl)c(Cl)cc2N1` [Example 300, 7,8-Dichloro-4-(3-pyrimidin-4-yl-phenyl)-1,3-dihydro-benzo[b][1,4]diazepin-2-one], the melting point is 234 to 237 °C.
The compound `Cc1nccc(-c2cccc(C3=Nc4cc(C)c(C(F)(F)F)cc4NC(=O)C3)c2)n1` [Example 301, 7-Methyl-4-[3-(2-methyl-pyrimidin-4-yl)-phenyl]-8-trifluoromethyl-1,3-dihydro-benzo[b][1,4]diazepin-2-one] returned a melting point of 230 to 232 °C.
Regarding `Cc1nccc(-c2cccc(C3=Nc4ccc(C(F)(F)F)cc4NC(=O)C3)c2)n1` [Example 304, 4-[3-(2-Methyl-pyrimidin-4-yl)-phenyl]-8-trifluoromethyl-1,3-dihydro-benzo[b][1,4]diazepin-2-one], the melting point was in the range of 212 to 226 °C.
Take `Cc1nccc(-c2cccc(C3=Nc4ccc(Cl)cc4NC(=O)C3)c2)n1` [Example 305, 8-Chloro-4-[3-(2-methyl-pyrimidin-4-yl)-phenyl]-1,3-dihydro-benzo[b][1,4]diazepin-2-one]: the melting point fell in the range of 215 to 220 °C.
In turn, `Cc1nccc(-c2cccc(C3=Nc4cc(Cl)c(Cl)cc4NC(=O)C3)c2)n1` [Example 306, 7,8-Dichloro-4-[3-(2-methyl-pyrimidin-4-yl)-phenyl]-1,3-dihydro-benzo[b][1,4]diazepin-2-one] returned a melting point of 241 to 242 °C.
Turning to `Cc1nccc(-c2cccc(C3=Nc4ccc(-n5cccc5)cc4NC(=O)C3)c2)n1` [Example 307, 4-[3-(2-Methyl-pyrimidin-4-yl)-phenyl]-8-pyrrol-1-yl-1,3-dihydro-benzo[b][1,4]diazepin-2-one], the melting point fell in the range of 209 to 212 °C.
